This is an account of results in paper PMC9000610, “Computational Analysis and Biological Activities of Oxyresveratrol Analogues, the Putative Cyclooxygenase-2 Inhibitors” (Molecules, 2022).

The nature of one series: in vitro. As to conditions: human. The class given is cell-based, human. On the procedure:
(§1) The effect of oxyresveratrol and its derivatives on the viability of normal human fibroblasts (MRC-5 cells) were determined by MTT assay. MRC-5 cells were diluted to 2 × 10^5 cells/mL with a complete medium. The cells (100 µL) were seeded in the wells of the sterile 96-well cell culture plate. After incubation at 37 °C in CO2 for 24 h, the cells were treated with different concentrations of sample compounds (100 µL) and doxorubicin as a positive control (100 µL). After incubation for 48 h, MTT solution (20 µL of 5 mg/mL) was added to each well and incubated for 3 h. After that, the complete medium was removed. Then, the cells were lysed with DMSO (100 µL). The yellow MTT dye was reduced by succinic dehydrogenase in the mitochondria of viable cells to purple formazan crystals. After that, absorbance (OD) was measured by a microplate reader at 570 nm. The percentage of cytotoxicity was determined with Equation (1) below. (1) Cell viability(%)=OD of treated cells/OD of control cells×100^

The target of another series is T1, human COX-2 (Homo sapiens, UniProt P35354).
T1 construct: purchased Cayman Chemicals USA Item no; 701080
T1 sequence (P35354 18-604): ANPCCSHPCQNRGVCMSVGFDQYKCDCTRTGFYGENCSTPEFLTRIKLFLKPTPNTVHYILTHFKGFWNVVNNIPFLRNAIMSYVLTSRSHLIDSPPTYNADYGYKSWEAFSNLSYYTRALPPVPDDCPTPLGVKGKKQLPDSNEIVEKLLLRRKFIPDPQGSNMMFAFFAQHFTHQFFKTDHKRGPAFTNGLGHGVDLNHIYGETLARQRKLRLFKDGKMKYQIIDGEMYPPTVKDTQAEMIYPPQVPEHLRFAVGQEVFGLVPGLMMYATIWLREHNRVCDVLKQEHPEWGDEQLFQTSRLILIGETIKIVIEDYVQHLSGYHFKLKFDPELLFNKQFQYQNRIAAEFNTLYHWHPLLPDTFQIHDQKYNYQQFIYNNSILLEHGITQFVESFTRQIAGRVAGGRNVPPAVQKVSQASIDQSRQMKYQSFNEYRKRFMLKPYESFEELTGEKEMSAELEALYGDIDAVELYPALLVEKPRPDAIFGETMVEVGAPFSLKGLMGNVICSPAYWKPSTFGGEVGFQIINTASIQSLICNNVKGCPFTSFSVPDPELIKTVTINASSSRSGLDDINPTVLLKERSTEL
Briefly: Human COX-2 inhibitor screening assay kit (Cayman). In kind it is biochemical. As to conditions: mean ± standard deviation of three replicates; read-out: COX-2 Inhibition IC50. On the procedure: COX-2 enzyme and tested compounds at various concentrations were prepared in the reaction buffer (0.1 M Tris-HCl, pH 8.0, containing 5 mM EDTA and 2 mM phenol) containing heme. […] The quenched reactions were incubated at room temperature for 5 min to produce prostaglandin F2α. Dilutions were made with the ELISA buffer and measured by using a PGE2 ELISA kit according to the manufacturer’s instruction.

Another series concerns MRC-5 cells. The series is described as follows: in vitro. In kind it is cell-based, human. As for the experimental part: as §1

In “in vitro”, `Oc1cc(O)cc(/C=C/c2ccc(O)cc2O)c1` [Compound 1, trans-2,3′,4,5′-tetrahydroxystilbene] came in with a cytotoxic concentration (CC50) at 48 h of 57.5 ± 2.34 µM. In addition, the IC50 at human COX-2 came out at 14.5 ± 2.04 µM.
The compound `CC(=O)Oc1cc(CCc2ccc(OC(C)=O)cc2OC(C)=O)cc(OC(C)=O)c1` [Compound 6, 2,3′,4,5′-tetraacetoxybibenzyl] returned a melting point of 72.3 to 73.3 °C. The CC50 at 48 h in the series “in vitro” was determined as 121 ± 2.37 µM. Moreover, at human COX-2, the concentration for half-maximal inhibition (IC50) is 19 ± 2.01 µM.
The compound `CC(=O)Oc1cc(OC(C)=O)cc(C(F)C(F)c2ccc(OC(C)=O)cc2OC(C)=O)c1` (stereo not drawn) [Compound 9] showed a 50% cytotoxic concentration (CC50) at 48 h in the series “in vitro” of 11.7 ± 1.35 µM.
Same read-out and setting: in the case of `COc1cc(OC)cc(C(F)C(OC)c2ccc(OC)cc2OC)c1` (stereo not drawn) [Compound 8] it was 53.04 ± 0.22 µM.
Turning to `CC(=O)Oc1cc(C=Cc2ccc(OC(C)=O)cc2OC(C)=O)cc(OC(C)=O)c1` [Compound 3, 2,3′,4,5′-tetraacetoxystilbene], in the series “in vitro”, the CC50 at 48 h worked out at 77.7 ± 3.07 µM. The half-maximal inhibitory concentration (IC50) on human COX-2 worked out at 23 ± 2.02 µM.
With `Oc1cc(O)cc(CCc2ccc(O)cc2O)c1` [Compound 4, 2,3′,4,5′-tetrahydroxybibenzyl], the “cytotoxicity to normal cell lines (in words)” value in the series with MRC-5 cells is “very low cytotoxicity”. The midpoint of cytotoxicity in the series “in vitro”, the CC50 at 48 h, lay at 106 ± 3.86 µM. In addition, the IC50 at human COX-2 is 11.5 ± 1.54 µM.
Regarding `COc1cccc2c1C(=O)c1c(O)c3c(c(O)c1C2=O)C[C@@](O)(C(=O)CO)C[C@@H]3O[C@H]1C[C@H](N)[C@H](O)[C@H](C)O1` [doxorubicin, reference compound], the 50% cytotoxic concentration (CC50) at 48 h in the series “in vitro” is > 100 µM.
`COc1cc(CCc2ccc(OC)cc2OC)cc(OC)c1` [Compound 5, 2,3′,4,5′-tetramethoxybibenzyl] came in with a melting point of 44.7 to 46.8 °C. In addition, the midpoint of cytotoxicity in the series “in vitro”, the CC50 at 48 h, lay at 130 ± 3.04 µM. In addition, the IC50 at human COX-2 worked out at 18.1 ± 2.07 µM.
For `COc1cc(C=Cc2ccc(OC)cc2OC)cc(OC)c1` [Compound 2, 2,3′,4,5′-tetramethoxystilbene], in “in vitro”, the midpoint of cytotoxicity, the CC50 at 48 h, lay at 118 ± 2.69 µM. Further, at human COX-2, the 50% inhibitory concentration (IC50) stood at 25 ± 2.34 µM.

One may read the CC50 as the concentration at which the toxic effect on the cells reaches its halfway point. A low value points to greater toxicity to the cells. The IC50 is the concentration that inhibits the measured activity by half. The term melting point denotes the temperature of the solid-liquid transition.
